The values below are quoted from earlier work in patent US20110130383A1, “Use of Ion Channel Modulators in the Prophylaxis and Treatment of Inflammatory and Immunological Diseases” (LECTUS THERAPEUTICS LIMITED, priority 2006, published 2011).

For one data set, the target named is Kv1.3 channels (Homo sapiens, UniProt P22001). The conditions noted are these: inhibition of Kv1.3 channels versus cardiac Kv1.5 channels.
The conditions of data set [1]: rats, 28-day, administered by gavage; tissues including those reported to express Kv1.3 channels.

Kv1.3 channels, sequence (P22001 whole entry): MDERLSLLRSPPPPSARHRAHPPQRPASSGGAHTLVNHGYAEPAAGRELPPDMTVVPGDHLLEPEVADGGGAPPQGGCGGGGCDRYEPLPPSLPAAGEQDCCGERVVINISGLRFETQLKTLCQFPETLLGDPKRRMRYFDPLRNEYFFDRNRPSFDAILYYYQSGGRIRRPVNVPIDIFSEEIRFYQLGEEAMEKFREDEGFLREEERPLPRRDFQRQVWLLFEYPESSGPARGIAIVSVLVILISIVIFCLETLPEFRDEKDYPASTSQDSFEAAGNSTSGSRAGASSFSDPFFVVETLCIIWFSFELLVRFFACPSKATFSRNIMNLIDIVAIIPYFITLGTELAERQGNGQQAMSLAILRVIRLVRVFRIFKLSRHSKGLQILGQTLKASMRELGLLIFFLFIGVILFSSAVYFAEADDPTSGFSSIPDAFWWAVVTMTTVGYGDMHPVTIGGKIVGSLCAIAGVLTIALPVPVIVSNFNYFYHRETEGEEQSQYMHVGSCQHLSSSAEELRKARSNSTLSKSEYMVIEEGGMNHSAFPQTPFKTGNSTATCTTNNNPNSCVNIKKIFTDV

On to `O=c1ccc2c(OCCCCOc3ccccc3)c3ccoc3cc2o1` [PAP-1], for which the “selectivity over cardiac Kv1.5 channels” value on Kv1.3 channels is on record as 23 fold. In addition, the “histopathological changes in tissues examined” value in data set [1] is recorded as “failed to induce any histopathological changes”.
